# According to US8410161B2, “Thioxanthone ring system derivatives” (National Defense Medical Center, priority 2010, dated 2013):
# What was measured:
# CCRF-CEM = assay: NCI in vitro DTP human cell line screen, CCRF-CEM; assay type: cell-based; details: Leukemia, 1.00E−5 Molar
# Experimental: (§1) Then, a cell toxicity assay of the cancer lines made by National Cancer Institute will be discussed as follows. The cell toxicity assay is performed by choosing ten compounds (existing certification numbers) from the 59 compounds disclosed in the present invention first.
# HL-60(TB) = assay: NCI in vitro DTP human cell line screen, HL-60(TB); assay type: cell-based; details: Leukemia, 1.00E−5 Molar
# Experimental: as §1
# K562 = assay: NCI in vitro DTP human cell line screen, K562; assay type: cell-based; details: Leukemia, 1.00E−5 Molar
# Experimental: as §1
# MOLT-4 = assay: NCI in vitro DTP human cell line screen, MOLT-4; assay type: cell-based; details: Leukemia, 1.00E−5 Molar
# Experimental: as §1
# SR = assay: NCI in vitro DTP human cell line screen, SR; assay type: cell-based; details: Leukemia, 1.00E−5 Molar
# Experimental: as §1
# EKVX = assay: NCI in vitro DTP human cell line screen, EKVX; assay type: cell-based; details: Non-Small Cell Lung Cancer, 1.00E−5 Molar
# Experimental: as §1
# HOP-62 = assay: NCI in vitro DTP human cell line screen, HOP-62; assay type: cell-based; details: Non-Small Cell Lung Cancer, 1.00E−5 Molar
# Experimental: as §1
# HOP-92 = assay: NCI in vitro DTP human cell line screen, HOP-92; assay type: cell-based; details: Non-Small Cell Lung Cancer, 1.00E−5 Molar
# Experimental: as §1
# NCI-H226 = assay: NCI in vitro DTP human cell line screen, NCI-H226; assay type: cell-based; details: Non-Small Cell Lung Cancer, 1.00E−5 Molar
# Experimental: as §1
# NCI-H23 = assay: NCI in vitro DTP human cell line screen, NCI-H23; assay type: cell-based; details: Non-Small Cell Lung Cancer, 1.00E−5 Molar
# Experimental: as §1
# NCI-H322M = assay: NCI in vitro DTP human cell line screen, NCI-H322M; assay type: cell-based; details: Non-Small Cell Lung Cancer, 1.00E−5 Molar
# Experimental: as §1
# NCI-H460 = assay: NCI in vitro DTP human cell line screen, NCI-H460; assay type: cell-based; details: Non-Small Cell Lung Cancer, 1.00E−5 Molar
# Experimental: as §1
# NCI-H522 = assay: NCI in vitro DTP human cell line screen, NCI-H522; assay type: cell-based; details: Non-Small Cell Lung Cancer, 1.00E−5 Molar
# Experimental: as §1
# HCC-2998 = assay: NCI in vitro DTP human cell line screen, HCC-2998; assay type: cell-based; details: Colon Cancer, 1.00E−5 Molar
# Experimental: as §1
# HCT-116 = assay: NCI in vitro DTP human cell line screen, HCT-116; assay type: cell-based; details: Colon Cancer, 1.00E−5 Molar
# Experimental: as §1
# HCT-15 = assay: NCI in vitro DTP human cell line screen, HCT-15; assay type: cell-based; details: Colon Cancer, 1.00E−5 Molar
# Experimental: as §1
# HT29 = assay: NCI in vitro DTP human cell line screen, HT29; assay type: cell-based; details: Colon Cancer, 1.00E−5 Molar
# Experimental: as §1
# KM12 = assay: NCI in vitro DTP human cell line screen, KM12; assay type: cell-based; details: Colon Cancer, 1.00E−5 Molar
# Experimental: as §1
# SW-620 = assay: NCI in vitro DTP human cell line screen, SW-620; assay type: cell-based; details: Colon Cancer, 1.00E−5 Molar
# Experimental: as §1
# SF-268 = assay: NCI in vitro DTP human cell line screen, SF-268; assay type: cell-based; details: CNS Cancer, 1.00E−5 Molar
# Experimental: as §1
# SF-295 = assay: NCI in vitro DTP human cell line screen, SF-295; assay type: cell-based; details: CNS Cancer, 1.00E−5 Molar
# Experimental: as §1
# SF-539 = assay: NCI in vitro DTP human cell line screen, SF-539; assay type: cell-based; details: CNS Cancer, 1.00E−5 Molar
# Experimental: as §1
# SNB-19 = assay: NCI in vitro DTP human cell line screen, SNB-19; assay type: cell-based; details: CNS Cancer, 1.00E−5 Molar
# Experimental: as §1
# SNB-75 = assay: NCI in vitro DTP human cell line screen, SNB-75; assay type: cell-based; details: CNS Cancer, 1.00E−5 Molar
# Experimental: as §1
# U251 = assay: NCI in vitro DTP human cell line screen, U251; assay type: cell-based; details: CNS Cancer, 1.00E−5 Molar
# Experimental: as §1
# LOX IMVI = assay: NCI in vitro DTP human cell line screen, LOX IMVI; assay type: cell-based; details: Melanoma, 1.00E−5 Molar
# Experimental: as §1
# MALME-3M = assay: NCI in vitro DTP human cell line screen, MALME-3M; assay type: cell-based; details: Melanoma, 1.00E−5 Molar
# Experimental: as §1
# M14 = assay: NCI in vitro DTP human cell line screen, M14; assay type: cell-based; details: Melanoma, 1.00E−5 Molar
# Experimental: as §1
# MDA-MB-435 = assay: NCI in vitro DTP human cell line screen, MDA-MB-435; assay type: cell-based; details: Melanoma, 1.00E−5 Molar
# Experimental: as §1
# SK-MEL-2 = assay: NCI in vitro DTP human cell line screen, SK-MEL-2; assay type: cell-based; details: Melanoma, 1.00E−5 Molar
# Experimental: as §1
# SK-MEL-28 = assay: NCI in vitro DTP human cell line screen, SK-MEL-28; assay type: cell-based; details: Melanoma, 1.00E−5 Molar
# Experimental: as §1
# SK-MEL-5 = assay: NCI in vitro DTP human cell line screen, SK-MEL-5; assay type: cell-based; details: Melanoma, 1.00E−5 Molar
# Experimental: as §1
# UACC-257 = assay: NCI in vitro DTP human cell line screen, UACC-257; assay type: cell-based; details: Melanoma, 1.00E−5 Molar
# Experimental: as §1
# IGROV1 = assay: NCI in vitro DTP human cell line screen, IGROV1; assay type: cell-based; details: Ovarian Cancer, 1.00E−5 Molar
# Experimental: as §1
# OVCAR-4 = assay: NCI in vitro DTP human cell line screen, OVCAR-4; assay type: cell-based; details: Ovarian Cancer, 1.00E−5 Molar
# Experimental: as §1
# OVCAR-5 = assay: NCI in vitro DTP human cell line screen, OVCAR-5; assay type: cell-based; details: Ovarian Cancer, 1.00E−5 Molar
# Experimental: as §1
# OVCAR-8 = assay: NCI in vitro DTP human cell line screen, OVCAR-8; assay type: cell-based; details: Ovarian Cancer, 1.00E−5 Molar
# Experimental: as §1
# NCI/ADR-RES = assay: NCI in vitro DTP human cell line screen, NCI/ADR-RES; assay type: cell-based; details: Ovarian Cancer, 1.00E−5 Molar
# Experimental: as §1
# SK-OV-3 = assay: NCI in vitro DTP human cell line screen, SK-OV-3; assay type: cell-based; details: Ovarian Cancer, 1.00E−5 Molar
# Experimental: as §1
# ACHN = assay: NCI in vitro DTP human cell line screen, ACHN; assay type: cell-based; details: Renal Cancer, 1.00E−5 Molar
# Experimental: as §1
# CAKI-1 = assay: NCI in vitro DTP human cell line screen, CAKI-1; assay type: cell-based; details: Renal Cancer, 1.00E−5 Molar
# Experimental: as §1
# RXF 393 = assay: NCI in vitro DTP human cell line screen, RXF 393; assay type: cell-based; details: Renal Cancer, 1.00E−5 Molar
# Experimental: as §1
# TK-10 = assay: NCI in vitro DTP human cell line screen, TK-10; assay type: cell-based; details: Renal Cancer, 1.00E−5 Molar
# Experimental: as §1
# UO-31 = assay: NCI in vitro DTP human cell line screen, UO-31; assay type: cell-based; details: Renal Cancer, 1.00E−5 Molar
# Experimental: as §1
# PC-3 = assay: NCI in vitro DTP human cell line screen, PC-3; assay type: cell-based; details: Prostate Cancer, 1.00E−5 Molar
# Experimental: as §1
# DU145 = assay: NCI in vitro DTP human cell line screen, DU145; assay type: cell-based; details: Prostate Cancer, 1.00E−5 Molar
# Experimental: as §1
# MCF7 = assay: NCI in vitro DTP human cell line screen, MCF7; assay type: cell-based; details: Breast Cancer, 1.00E−5 Molar
# Experimental: as §1
# HS 578-T = assay: NCI in vitro DTP human cell line screen, HS 578-T; assay type: cell-based; details: Breast Cancer, 1.00E−5 Molar
# Experimental: as §1
# BT-549 = assay: NCI in vitro DTP human cell line screen, BT-549; assay type: cell-based; details: Breast Cancer, 1.00E−5 Molar
# Experimental: as §1
# T-47D = assay: NCI in vitro DTP human cell line screen, T-47D; assay type: cell-based; details: Breast Cancer, 1.00E−5 Molar
# Experimental: as §1
# MDA-MB-468 = assay: NCI in vitro DTP human cell line screen, MDA-MB-468; assay type: cell-based; details: Breast Cancer, 1.00E−5 Molar
# Experimental: as §1
# 60 cancer lines = assay: NCI cell toxicity assay of 60 cancer lines, whole panel summary; assay type: cell-based, human; details: 1.00E−5 Molar
# Experimental: as §1
structure (smiles),measurement,setting,value
"CCCSc1ccc2c(=O)c3ccccc3sc2c1Cl [No. 3, 4-Chloro-3-(propylthio)-9H-thioxanthen-9-one]",Growth Percent,CCRF-CEM,85.29%
same,Growth Percent,HL-60(TB),118.59%
same,Growth Percent,K562,94.26%
same,Growth Percent,MOLT-4,94.70%
same,Growth Percent,SR,75.26%
same,Growth Percent,EKVX,96.42%
same,Growth Percent,HOP-62,105.09%
same,Growth Percent,HOP-92,98.11%
same,Growth Percent,NCI-H226,94.52%
same,Growth Percent,NCI-H23,91.47%
same,Growth Percent,NCI-H322M,73.70%
same,Growth Percent,NCI-H460,59.83%
same,Growth Percent,NCI-H522,94.37%
same,Growth Percent,HCC-2998,100.70%
same,Growth Percent,HCT-116,61.89%
same,Growth Percent,HCT-15,98.58%
same,Growth Percent,HT29,103.50%
same,Growth Percent,KM12,86.73%
same,Growth Percent,SW-620,87.67%
same,Growth Percent,SF-268,80.00%
same,Growth Percent,SF-295,82.14%
same,Growth Percent,SF-539,82.48%
same,Growth Percent,SNB-19,94.29%
same,Growth Percent,SNB-75,100.85%
same,Growth Percent,U251,67.20%
same,Growth Percent,LOX IMVI,64.69%
same,Growth Percent,MALME-3M,92.96%
same,Growth Percent,M14,102.38%
same,Growth Percent,MDA-MB-435,80.72%
same,Growth Percent,SK-MEL-2,114.59%
same,Growth Percent,SK-MEL-28,104.13%
same,Growth Percent,SK-MEL-5,98.20%
same,Growth Percent,UACC-257,98.85%
same,Growth Percent,IGROV1,91.28%
same,Growth Percent,OVCAR-4,73.74%
same,Growth Percent,OVCAR-5,94.79%
same,Growth Percent,OVCAR-8,83.50%
same,Growth Percent,NCI/ADR-RES,93.97%
same,Growth Percent,SK-OV-3,104.52%
same,Growth Percent,ACHN,74.17%
same,Growth Percent,CAKI-1,78.97%
same,Growth Percent,RXF 393,106.97%
same,Growth Percent,TK-10,103.80%
same,Growth Percent,UO-31,99.45%
same,Growth Percent,PC-3,94.80%
same,Growth Percent,DU145,91.93%
same,Growth Percent,MCF7,97.13%
same,Growth Percent,HS 578-T,94.80%
same,Growth Percent,BT-549,93.64%
same,Growth Percent,T-47D,98.14%
same,Growth Percent,MDA-MB-468,91.53%
same,"Growth Percent, Mean",60 cancer lines; mean over all cell lines,91.31%
same,cancer types with the better inhibition effect (in words),60 cancer lines; summary of Table 3,better inhibition effect on non-small cell lung cancer
